Measured values published in PMC317295 (BMC Pharmacology, 2003).

Biological target: β2-adrenergic receptor (β2AR) (Homo sapiens, UniProt P07550)
Assay: radioligand saturation binding on membranes

β2-adrenergic receptor (β2AR), sequence (P07550 whole entry): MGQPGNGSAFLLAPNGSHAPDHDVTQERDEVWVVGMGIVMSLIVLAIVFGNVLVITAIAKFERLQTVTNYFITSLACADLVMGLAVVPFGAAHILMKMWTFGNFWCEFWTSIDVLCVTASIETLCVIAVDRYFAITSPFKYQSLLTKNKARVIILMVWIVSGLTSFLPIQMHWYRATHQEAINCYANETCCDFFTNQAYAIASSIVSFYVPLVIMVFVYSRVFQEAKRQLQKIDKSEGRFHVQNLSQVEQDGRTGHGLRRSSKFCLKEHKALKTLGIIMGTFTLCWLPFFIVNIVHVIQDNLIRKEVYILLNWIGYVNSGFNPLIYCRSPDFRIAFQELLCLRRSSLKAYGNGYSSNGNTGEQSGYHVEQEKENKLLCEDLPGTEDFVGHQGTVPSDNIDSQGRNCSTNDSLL

Kd: 420 ± 100 pM
Compound: CCCc1ccccc1OCC(O)CNC(C)C (stereo not shown) [[3H]dihydroalprenolol]
